Experiments:
Plasmodium falciparum [1] = test: NOVARTIS: Inhibition of Plasmodium falciparum 3D7 (drug-susceptible) proliferation in erythrocyte-based infection assay; assay type: functional, organism-based; settings: Plasmodium falciparum, 3D7
Plasmodium falciparum [2] = test: NOVARTIS: Inhibition of Plasmodium falciparum W2 (drug-resistant) proliferation in erythrocyte-based infection assay; assay type: functional, organism-based; settings: Plasmodium falciparum, W2; read-out: EC50
[3] = NOVARTIS: Cytotoxicity against human hepatocellular carcinoma cell line (Huh7); assay type: toxicity, cell-based, Huh-7; settings: Huh7 cells (hepatocellular carcinoma cell line)

| SMILES | EC50 (Plasmodium falciparum [1]) | EC50 (Plasmodium falciparum [2]) | CC50 [3] |
| --- | --- | --- | --- |
| COc1ccc2nc(-c3ccccc3)cc(O)c2c1 | 411 nM | 314 nM | 835 nM |
| Nc1nc(N)c2nc(CCc3ccc(C(=O)N[C@H](CCC(=O)O)C(=O)O)cc3)cnc2n1 | 29.5 nM | 1.78 nM | 8.1 nM |
| CC[C@H]1CN2CCc3cc(OC)c(OC)cc3[C@@H]2C[C@@H]1C[C@@H]1NCCc2cc(OC)c(OC)cc21 | 10.6 nM | 23.1 nM | 82.2 nM |
| COc1ccc(NC(=O)c2c(Cl)nc(Cl)c([N+](=O)[O-])c2C)cc1 | > 1250 nM | 2060 nM | > 10000 nM |
| Cc1ccc(NC(C)c2nc3ccccc3c(=O)n2CCOC2CCCCO2)cc1C (stereo not given) | 799 nM | 1040 nM | > 2700 nM |
| CC(=O)Nc1ccc(C(C)=NNc2nc(Nc3cc(C)ccc3C)nc(N3CCOCC3)n2)cc1 | > 1250 nM | 2060 nM | > 10000 nM |
| O=C(Nc1ccc(-c2nc3cc(NC(=O)c4ccc(Br)o4)ccc3[nH]2)cc1)c1ccc(Br)o1 | 294 nM | 709 nM | 2250 nM |
| CCCCSc1oc(C)nc1[P+](c1ccccc1)(c1ccccc1)c1ccccc1 | 203 nM | 583 nM | 2640 nM |
| Cc1cccc(C)c1NC(=O)C(O)c1ccc(Cl)cc1Cl (stereo not given) | > 1250 nM | 2200 nM | > 10000 nM |
| O=C(NCCN1CCCCC1)c1ccc(OC2CCN(CC3CCCCC3)CC2)c(Cl)c1 | 344 nM | 1170 nM | 5370 nM |
| N#Cc1ccccc1CN1CCC(Oc2cccc3onc(N)c23)CC1 | > 1660 nM | 189 nM | 891 nM |
| CN1C=C(c2ccc3ccccc3n2)C(C[N+](=O)[O-])c2ccccc21 (stereo not given) | 791 nM | 2110 nM | > 10000 nM |
| Nc1ccc2[nH]c(/C=C/c3ccc(Cl)cc3)nc2c1 | > 1250 nM | 2080 nM | > 10000 nM |
| Cc1sc2nc(CN(C(=O)CCc3ccccc3)C3CCCCC3)[nH]c(=O)c2c1C | > 1250 nM | 424 nM | 1940 nM |
| COc1ccc2[nH]c3c(c2c1)CCNC3c1ccc(OC)c(CSc2nnc(-c3ccccc3)o2)c1 (stereo not given) | 4050 nM | 1990 nM | 7420 nM |
| OCCNCCNCc1ccc2[nH]c3ccccc3c2c1 | 291 nM | 7600 nM | 28900 nM |
| CC(C)(C)c1ccc(C=CC(=O)NCc2ccco2)cc1 | 623 nM | 322 nM | 1140 nM |
| CN(C)CCCNc1cc(-c2ccccc2)nc2ccccc12 | 123 nM | 5150 nM | 18600 nM |

| SMILES | EC50 (Plasmodium falciparum [1]) | EC50 (Plasmodium falciparum [2]) | CC50 [3] |
| --- | --- | --- | --- |
| COc1cc(NC(C)CCCN(Cc2ccc(OC)c(OC)c2)C(=O)NC2CCCCC2)c2ncccc2c1 (stereo not given) | 676 nM | 337 nM | 1300 nM |
| N#CN=C(N)c1sc(Nc2ccccc2)nc1N | 806 nM | 2390 nM | 9370 nM |
| CC(C)CN(CC(=O)N1CCC(Nc2nsc3ccccc23)C1)S(C)(=O)=O (stereo not given) | 1980 nM | 3940 nM | 15700 nM |
| CC[n+]1c(/C=C/C=C2\N(C)c3ccccc3C2(C)C)n(-c2ccccc2)c2cc(Cl)ccc21 | 287 nM | 530 nM | 1690 nM |
| COc1ccccc1/C=C\CN(C(=O)c1ccc(C)cc1)C(c1ccccc1)c1ccccc1 | 1120 nM | > 1350 nM | > 4360 nM |
| CCCCN(C)Cc1ccc2c(NC(=O)c3ccc(C)s3)c(C(=O)OC)sc2n1 | 542 nM | 461 nM | 1520 nM |
| COc1ccc(C(=O)N2C(C(=O)NCCC(C)C)CSC2c2ccc(C(C)(C)C)cc2)cc1 (stereo not given) | 797 nM | 1120 nM | > 4480 nM |
| NC(=O)c1ccc2c(c1)N=C(/C=C/c1ccccc1)N(C1CC1)C2 | 74.7 nM | 5600 nM | 23000 nM |
| CC(=O)N(/C=C1/Sc2ccccc2C1=O)c1ccc(C)cc1 | > 1250 nM | 2410 nM | > 10000 nM |
| CN(C)CCN1CCN(c2ccnc3cc4ccccc4cc23)CC1 | 108 nM | 369 nM | 1550 nM |
| CCOc1ccc(NC(=O)c2ccc(C)o2)cc1 | 3710 nM | 4430 nM | 13000 nM |
| c1ccc2c(c1)CSc1sccc1C2=C1CCNCC1 | 88 nM | 4410 nM | 13000 nM |
| Cc1cc(Nc2cccc(Cl)c2)nc2ccc(NC(=O)c3cccnc3)cc12 | 721 nM | 1310 nM | 4190 nM |
| CCN1C(=O)c2ccccc2Sc2ccc(NC(=O)NCCCOC(C)C)cc21 | > 10000 nM | > 10000 nM | 32100 nM |
| CN1CCN(c2ccc(NC(=O)Oc3ccccc3)cc2)CC1 | 4170 nM | 7480 nM | 25400 nM |
| CCC(c1nc2ccccc2c(=O)n1-c1cccc(Cl)c1)N(CCC(C)C)C(=O)COCc1ccccc1 (stereo not given) | 1190 nM | > 1140 nM | 3910 nM |
| CCOc1cc(Br)cc(C=NNC(=O)COc2cccc(C)c2)c1O | 7520 nM | > 12500 nM | > 46200 nM |

From ChEMBL document CHEMBL1156829 (Proc Natl Acad Sci U S A, 2008)
